Measurements from patent publication US9273033B2, “Substituted pyridone derivatives as PDE10 inhibitors” (Merck Sharp & Dohme Corp., priority 2012, dated 2016).

Target: human PDE10A2 (Homo sapiens (Human), UniProt Q9Y233)
Experiment: PDE10 fluorescence polarization (IMAP FP) inhibition assay
Assay type: biochemical
Conditions: human PDE10A2, FAM-labeled cAMP substrate, read-out: PDE10A Ki
Summary of the method: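 Cytoplasmic lysate of AD293 cells transiently expressing human PDE10A2 (diluted to ~20% substrate conversion) incubated 30 min at room temperature with 50 nM FAM-cAMP in Tris pH 7.2 buffer with MgCl2, DTT. Activity read by IMAP fluorescence polarization. 0% inhibition set with 1% DMSO, 100% with reference PDE10 inhibitor.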

Chain of human PDE10A2 (Q9Y233 267-1055): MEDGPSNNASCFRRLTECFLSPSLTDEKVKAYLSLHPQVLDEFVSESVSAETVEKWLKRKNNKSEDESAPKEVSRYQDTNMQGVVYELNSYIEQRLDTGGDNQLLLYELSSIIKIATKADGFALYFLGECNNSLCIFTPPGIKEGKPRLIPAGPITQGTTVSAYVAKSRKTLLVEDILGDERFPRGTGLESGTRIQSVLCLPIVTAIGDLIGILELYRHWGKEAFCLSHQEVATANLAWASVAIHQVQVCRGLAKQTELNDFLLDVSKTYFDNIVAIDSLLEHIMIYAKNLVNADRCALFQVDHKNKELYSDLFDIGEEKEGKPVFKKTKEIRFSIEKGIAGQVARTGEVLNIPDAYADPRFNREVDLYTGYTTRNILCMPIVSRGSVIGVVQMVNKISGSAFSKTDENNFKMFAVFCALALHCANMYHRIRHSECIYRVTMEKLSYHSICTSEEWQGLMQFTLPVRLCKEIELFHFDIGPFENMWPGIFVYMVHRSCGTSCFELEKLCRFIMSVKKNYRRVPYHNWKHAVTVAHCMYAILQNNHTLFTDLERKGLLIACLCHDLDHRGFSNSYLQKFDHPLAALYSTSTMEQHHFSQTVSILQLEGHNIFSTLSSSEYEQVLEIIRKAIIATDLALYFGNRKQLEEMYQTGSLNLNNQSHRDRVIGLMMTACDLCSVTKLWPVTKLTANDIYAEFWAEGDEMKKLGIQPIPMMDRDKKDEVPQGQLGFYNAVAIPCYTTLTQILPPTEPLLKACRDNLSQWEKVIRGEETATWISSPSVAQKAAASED

Structure (SMILES)	Ki [nM]
Cc1ccc([C@H]2C[C@@H]2COc2nc(C)ncc2-c2cc(=O)n(C)cc2Cl)nc1 [Example 99, 5-chloro-1-methyl-4-(2-methyl-4-(((1S,2S)-2-(5-methylpyridin-2-yl)cyclopropyl)methoxy)pyrimidin-5-yl)pyridin-2(1H)-one]	1.11
COc1ccc([C@H]2C[C@@H]2COc2nc(C)ncc2-c2ccc(=O)n(CC(F)F)c2)nc1 [Example 44, 1-(2,2-difluoroethyl)-5-(4-(((1S,2S)-2-(5-methoxypyridin-2-yl)cyclopropyl)methoxy)-2-methylpyrimidin-5-yl)pyridin-2(1H)-one]	2.3
COc1ccc([C@H]2C[C@@H]2COc2nc(C)ncc2-c2ccn(CC(F)(F)F)c(=O)c2)nc1 [Example 121, 4-(4-(((1S,2S)-2-(5-methoxypyridin-2-yl)cyclopropyl)methoxy)-2-methylpyrimidin-5-yl)-1-(2,2,2-trifluoroethyl)pyridin-2(1H)-one]	0.299
CCc1cc(-c2cnc(C)nc2OC[C@H]2C[C@@H]2c2ccc(OC)cn2)cn(C)c1=O [Example 16, 3-ethyl-5-(4-(((1S,2S)-2-(5-methoxypyridin-2-yl)cyclopropyl)methoxy)-2-methylpyrimidin-5-yl)-1-methylpyridin-2(1H)-one]	0.185
COc1ccc([C@H]2C[C@@H]2COc2nc(C)ncc2-c2cn(C)c(=O)cn2)nc1 [Example 61, 5-(4-(((1S,2S)-2-(5-methoxypyridin-2-yl)cyclopropyl)methoxy)-2-methylpyrimidin-5-yl)-1-methylpyrazin-2(1H)-one]	16.7
COc1ccc([C@H]2C[C@@H]2COc2nc(C)ncc2-c2cc(=O)n(C)cc2C(F)(F)F)nc1 [Example 93, 4-(4-(((1S,2S)-2-(5-methoxypyridin-2-yl)cyclopropyl)mcthoxy)-2-methylpyrimidin-5-yl)-1-methyl-5-(trifluoromethyl)pyridin-2(1H)-one]	3.02
Cc1ncc(-c2cc(=O)n(C)cn2)c(OC[C@H]2C[C@@H]2c2ccc3ccccc3n2)n1 [Example 140, 3-methyl-6-(2-methyl-4-(((1S,2S)-2-(quinolin-2-yl)cyclopropyl)methoxy)pyrimidin-5-yl)pyrimidin-4(3H)-one]	0.228
Cc1ccc([C@H]2C[C@@H]2COc2nc(C)ncc2-c2cnn(C)c(=O)c2)nc1 [Example 135, 2-methyl-5-(2-methyl-4-(((1S,2S)-2-(5-methylpyridin-2-yl)cyclopropyl)methoxy)pyrimidin-5-yl)pyridazin-3(2H)-one]	6.31
COCCn1c(C)c(-c2cnc(C)nc2OC[C@H]2C[C@@H]2c2ccc3ccccc3n2)ccc1=O [Example 31, 1-(2-methoxyethyl)-6-methyl-5-(2-methyl-4-(((1S,2S)-2-(quinolin-2-yl)cyclopropyl)methoxy)pyrimidin-5-yl)pyridin-2(1H)-one]	0.045
CCn1c(C)c(-c2cnc(C)nc2OC[C@H]2C[C@@H]2c2ccc3ccccc3n2)ccc1=O [Example 36, 1-ethyl-6-methyl-5-(2-methyl-4-(((1S,2S)-2-(quinolin-2-yl)cyclopropyl)methoxy)pyrimidin-5-yl)pyridin-2(1H)-one]	0.045
COc1ccc([C@H]2C[C@@H]2COc2nc(C)ncc2-c2ccn(C)c(=O)c2)nc1 [Example 70, 4-(4-(((1S,2S)-2-(5-methoxypyridin-2-yl)cyclopropyl)methoxy)-2-methylpyrimidin-5-yl)-1-methylpyridin-2(1H)-one]	1.25
Cc1ncc(-c2ccn(C)c(=O)c2)c(OC[C@H]2C[C@@H]2c2ccc3ccccc3n2)n1 [Example 79, 1-methyl-4-(2-methyl-4-(((1S,2S)-2-(quinolin-2-yl)cyclopropyl)methoxy)pyrimidin-5-yl)pyridin-2(1H)-one]	0.03
Cc1ncc(-c2ccc(=O)n(C)c2C)c(OC[C@H]2C[C@@H]2c2ccc3ccccc3n2)n1 [Example 34, 1,6-dimethyl-5-(2-methyl-4-(((1S,2S)-2-(quinolin-2-yl)cyclopropyl)methoxy)pyrimidin-5-yl)pyridin-2(1H)-one]	0.006
